Values quoted from earlier work as cited in US8575311B2, “Collagen peptide conjugates and uses therefor” (Purdue Research Foundation, priority 2008, dated 2013).

Settings: comparison value, conditions not given

Tm of comparison peptide: 67 °C
Substance: (Pro-Hyp-Gly)9
